Measured values from US20110039825A1, “LIGANDS OF ALPHA-ADRENOCEPTORS, DOPAMINE, HISTAMINE, IMIDAZOLINE AND SEROTONIN RECEPTORS AND THEIR USE” (Alla Chem, LLC, priority 2007, published 2011).

Experiments:
human D2S receptor = biological target: T1, human D2S receptor (Homo sapiens, UniProt P14416); experiment: radioligand binding to dopamine receptor D2S ([3H] Spiperone); settings: for Dopamine receptor D2S, % inhibition: 10 μM ligand
T1 construct: expressed in transfected cells; host or cells: CHO
Excerpt: 7-C. […] For this purpose sDNA of human D2S receptor is expressed in CHO cells, as described in [Hayes G, Biden T J, Selbie L A and Shine J, Structural subtypes of the dopamine D2 receptor are functionally distinct. […] Mol. Endocrinol. […] Mol. Endocrinol. […] Spiperone is used as positive control.

[1] = biological target: T2, recombinant human 5-HT2C receptor (Homo sapiens, UniProt P28335); experiment: radioligand binding to serotonin receptor 5-HT2C ([3H] Mesulergine)
T2 construct: expressed in transfected cells; host or cells: CHO-K1
T2 sequence (P28335 33-458): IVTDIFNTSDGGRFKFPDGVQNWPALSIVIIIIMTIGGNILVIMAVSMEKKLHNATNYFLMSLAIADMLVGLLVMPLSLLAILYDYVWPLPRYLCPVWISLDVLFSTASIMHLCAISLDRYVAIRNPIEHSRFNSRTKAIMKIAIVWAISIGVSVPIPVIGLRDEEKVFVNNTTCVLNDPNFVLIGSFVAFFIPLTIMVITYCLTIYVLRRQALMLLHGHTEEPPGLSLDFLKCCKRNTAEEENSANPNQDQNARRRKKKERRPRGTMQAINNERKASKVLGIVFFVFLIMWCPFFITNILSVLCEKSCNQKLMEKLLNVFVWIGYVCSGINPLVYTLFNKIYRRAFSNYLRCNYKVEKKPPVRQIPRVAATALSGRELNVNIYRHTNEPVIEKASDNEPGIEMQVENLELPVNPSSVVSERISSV
Excerpt: J. Neurochem. 69: 1449-1458, 1997]. […] SB242084 is used as positive control.

human H2 receptor = biological target: T3, human H2 receptor (Homo sapiens, UniProt P25021); experiment: radioligand binding to histamine receptor H2 ([125I] Aminopotentidine); settings: 10 μM ligand
T3 construct: expressed in transfected cells; host or cells: CHO-K1
Excerpt: Proc Natl Acad Sci USA. 87(5): 1658-1662, 1990]. […] Proc Natl Acad Sci USA. 87(5): 1658-1662, 1990]. […] Tiotidine is used as positive control.

adrenergic receptor α1B = biological target: T4, adrenergic receptor α1B (Rattus norvegicus, UniProt P15823); experiment: radioligand binding to adrenergic receptor α1B ([3H] Prazosin)
T4 construct: membrane species from rat liver (rat of Wistar breed) are prepared; from tissue; host or cells: rat (Wistar) liver membranes
T4 sequence (P15823 1-515): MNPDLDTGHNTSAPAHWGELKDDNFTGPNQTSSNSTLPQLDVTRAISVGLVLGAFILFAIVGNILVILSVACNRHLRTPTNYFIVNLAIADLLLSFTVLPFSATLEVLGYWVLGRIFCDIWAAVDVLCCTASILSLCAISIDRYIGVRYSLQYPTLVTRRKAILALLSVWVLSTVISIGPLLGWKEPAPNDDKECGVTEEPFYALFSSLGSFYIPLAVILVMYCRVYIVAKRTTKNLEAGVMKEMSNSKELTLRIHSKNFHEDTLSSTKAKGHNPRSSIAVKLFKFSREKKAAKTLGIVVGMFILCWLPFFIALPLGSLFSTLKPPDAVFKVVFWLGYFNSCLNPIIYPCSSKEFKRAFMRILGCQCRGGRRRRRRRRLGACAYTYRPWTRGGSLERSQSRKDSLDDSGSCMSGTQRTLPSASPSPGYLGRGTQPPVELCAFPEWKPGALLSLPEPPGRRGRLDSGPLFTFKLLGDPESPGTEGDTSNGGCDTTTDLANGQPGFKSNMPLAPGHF
Excerpt: Species heterogeneity of hepatic α1A-, α1B-, and α1C-subtypes. Biochem Biophys Res Commun. 186:760-7676 1992]. […] Prazosin is used as positive control.

human H1 receptor = biological target: T5, human H1 receptor (Homo sapiens, UniProt P35367); experiment: radioligand binding to histamine receptor H1 ([3H] Pyrilamine); settings: for Histamine receptor H1, % inhibition: 10 μM ligand
T5 construct: expressed in transfected cells; host or cells: CHO-K1
Excerpt: Biochem Biophys Res Comm. 197(3): 1601-1608, 1993]. […] Biochem Biophys Res Comm. 197(3): 1601-1608, 1993].
Pyrilamine is used as positive control.

[2] = biological target: T6, recombinant human 5-HT2B receptor (Homo sapiens, UniProt P41595); experiment: radioligand binding to serotonin receptor 5-HT2B ([3H] Lysergic acid diethylamide)
T6 construct: expressed in transfected cells; host or cells: CHO-K1

recombinant human 5-HT1A = biological target: T7, recombinant human 5-HT1A (Homo sapiens, UniProt P08908); experiment: radioligand binding to serotonin receptor 5-HT1A ([3H] 8-OH-DPAT)
T7 construct: expressed in transfected cells; host or cells: CHO
T7 sequence (P08908 1-422): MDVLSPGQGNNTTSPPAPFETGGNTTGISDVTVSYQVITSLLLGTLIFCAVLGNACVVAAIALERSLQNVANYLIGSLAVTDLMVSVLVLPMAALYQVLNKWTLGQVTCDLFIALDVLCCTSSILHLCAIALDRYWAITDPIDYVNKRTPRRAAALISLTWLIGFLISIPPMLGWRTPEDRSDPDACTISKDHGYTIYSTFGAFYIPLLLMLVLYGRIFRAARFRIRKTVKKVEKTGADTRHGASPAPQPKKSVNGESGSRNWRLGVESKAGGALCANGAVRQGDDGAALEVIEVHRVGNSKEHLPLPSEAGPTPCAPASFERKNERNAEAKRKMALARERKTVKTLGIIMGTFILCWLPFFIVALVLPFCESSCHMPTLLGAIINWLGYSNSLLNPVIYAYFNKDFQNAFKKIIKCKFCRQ
Excerpt: J Pharmacol Exp Ther. 306(1): 301-309, 2003]. […] Metergoline is used as positive control.

human 5-HT7 receptor = biological target: T8, human 5-HT7 receptor (Homo sapiens, UniProt P34969); experiment: radioligand binding to serotonin receptor 5-HT7 ([3H] Lysergic acid diethylamide)
T8 construct: expressed in transfected cells; host or cells: CHO
Excerpt: For this purpose sDNA of human 5-HT7 receptor is expressed in CHO cells as it was described in [Shen Y, Monsma F J Jr, Metcalf M A, Jose P A, Hamblin M W, and Sibley DR. […] J. Biol. Chem. 1993, 268, 18200-18204]. […] J. Pharmacol. Exp. Ther. 1994, 268:1403-1410]. […] Methiothepin is used as positive control.

T5 sequence (P35367 whole entry): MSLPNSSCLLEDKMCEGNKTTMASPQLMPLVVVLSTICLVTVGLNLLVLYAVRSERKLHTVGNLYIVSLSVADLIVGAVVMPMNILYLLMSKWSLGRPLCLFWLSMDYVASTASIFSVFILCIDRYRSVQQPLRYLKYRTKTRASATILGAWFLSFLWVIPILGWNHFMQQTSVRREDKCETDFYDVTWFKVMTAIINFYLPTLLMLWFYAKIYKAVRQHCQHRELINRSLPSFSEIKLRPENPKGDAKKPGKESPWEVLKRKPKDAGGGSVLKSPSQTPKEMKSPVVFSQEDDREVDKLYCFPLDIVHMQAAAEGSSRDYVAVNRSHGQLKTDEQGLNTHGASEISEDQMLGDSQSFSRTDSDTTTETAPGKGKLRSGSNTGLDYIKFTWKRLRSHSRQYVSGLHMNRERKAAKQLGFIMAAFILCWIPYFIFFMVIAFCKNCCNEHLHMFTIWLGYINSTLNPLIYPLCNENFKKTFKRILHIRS
T1 sequence (P14416 1-414 isoform P14416-2): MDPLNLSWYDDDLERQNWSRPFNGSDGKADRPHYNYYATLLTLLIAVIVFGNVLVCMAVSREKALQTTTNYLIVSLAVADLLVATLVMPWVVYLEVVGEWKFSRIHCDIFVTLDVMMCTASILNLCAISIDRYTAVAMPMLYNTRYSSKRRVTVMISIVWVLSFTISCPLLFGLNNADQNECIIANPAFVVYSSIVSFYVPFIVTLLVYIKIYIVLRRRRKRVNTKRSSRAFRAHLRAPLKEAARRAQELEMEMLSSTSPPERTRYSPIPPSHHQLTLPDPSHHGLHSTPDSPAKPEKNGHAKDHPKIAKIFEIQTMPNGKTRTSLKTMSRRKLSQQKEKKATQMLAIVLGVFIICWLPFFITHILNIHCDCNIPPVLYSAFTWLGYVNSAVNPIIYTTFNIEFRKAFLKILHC
T6 sequence (P41595 whole entry): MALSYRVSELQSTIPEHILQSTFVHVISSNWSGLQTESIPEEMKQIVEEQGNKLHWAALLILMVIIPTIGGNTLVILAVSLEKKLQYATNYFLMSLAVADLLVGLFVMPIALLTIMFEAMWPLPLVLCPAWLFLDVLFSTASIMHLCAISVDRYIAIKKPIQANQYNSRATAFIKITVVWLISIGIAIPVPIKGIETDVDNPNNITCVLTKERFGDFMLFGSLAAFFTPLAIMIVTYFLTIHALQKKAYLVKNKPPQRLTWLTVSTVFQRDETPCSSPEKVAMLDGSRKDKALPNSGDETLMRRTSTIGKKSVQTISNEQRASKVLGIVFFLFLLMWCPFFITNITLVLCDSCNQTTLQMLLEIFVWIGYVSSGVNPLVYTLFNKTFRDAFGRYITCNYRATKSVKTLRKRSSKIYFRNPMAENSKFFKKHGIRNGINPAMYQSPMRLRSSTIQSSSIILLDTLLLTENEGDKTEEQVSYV
T3 sequence (P25021 whole entry): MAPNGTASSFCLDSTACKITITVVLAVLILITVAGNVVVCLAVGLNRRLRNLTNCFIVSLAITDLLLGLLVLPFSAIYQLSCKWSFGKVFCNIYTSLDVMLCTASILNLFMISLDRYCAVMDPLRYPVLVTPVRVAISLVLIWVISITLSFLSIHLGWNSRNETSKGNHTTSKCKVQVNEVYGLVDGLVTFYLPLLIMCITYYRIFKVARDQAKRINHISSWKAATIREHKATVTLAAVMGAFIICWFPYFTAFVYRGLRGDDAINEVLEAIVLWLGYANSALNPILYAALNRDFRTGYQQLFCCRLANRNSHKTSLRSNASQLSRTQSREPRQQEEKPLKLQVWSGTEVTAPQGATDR
T8 sequence (P34969 whole entry): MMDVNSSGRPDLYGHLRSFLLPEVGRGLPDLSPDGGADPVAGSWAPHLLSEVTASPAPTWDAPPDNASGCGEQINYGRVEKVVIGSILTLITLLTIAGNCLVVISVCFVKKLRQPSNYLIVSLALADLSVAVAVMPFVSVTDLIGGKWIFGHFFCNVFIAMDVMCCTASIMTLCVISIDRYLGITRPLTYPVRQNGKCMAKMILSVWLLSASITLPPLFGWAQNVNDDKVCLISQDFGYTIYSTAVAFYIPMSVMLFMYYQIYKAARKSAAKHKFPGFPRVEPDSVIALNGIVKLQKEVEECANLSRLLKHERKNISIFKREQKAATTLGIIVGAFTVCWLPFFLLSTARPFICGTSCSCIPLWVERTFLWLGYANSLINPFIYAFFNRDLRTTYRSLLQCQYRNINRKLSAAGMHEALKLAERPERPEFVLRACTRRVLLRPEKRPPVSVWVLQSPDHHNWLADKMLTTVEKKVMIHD

`Cc1ccc2c(c1)[C@H]1CN(C)CCC[C@@H]1N2CCc1cccnc1` [1.6.2(10)•3HCl] was tested, and the “Dopamine receptor D2S, % inhibition” value (human D2S receptor) was 33%, the inhibition at 1 µM ([1]; ligand concentration 1 μM) was 99% and the “Histamine receptor H2, % inhibition” value (human H2 receptor) was 69%. The “α-Adrenoceptor α1B, % inhibition” value (adrenergic receptor α1B; 10 μM ligand) was 92% and the “Histamine receptor H1, % inhibition” value (human H1 receptor) was 103%.
For `CN1CCc2c(c3ccccc3n2Cc2ccccc2)C1` [1.9(1)•½NDSA, bis-(5-benzyl-2-methyl-2,3,4,5-tetrahydro-1H-pyrido[4,3-b]indole) naphtalene-1,5-disulfonate], the “nH 5-HT2B” value [2] was 0.552, the IC50 (human D2S receptor) was 3000 nM and the Ki (human D2S receptor) was 1080 nM. The “nH D2S” value (human D2S receptor) was 0.879, the “Dopamine receptor D2S, % inhibition” value (human D2S receptor) was 51% and the IC50 [1] was 13.5 nM. For the same molecule, the Ki [1] was 7.08 nM, the “nH 5-HT2C” value [1] was 0.987 and the IC50 (adrenergic receptor α1B) was 1580 nM. The Ki (adrenergic receptor α1B) was 872 nM, the “nH α1B” value (adrenergic receptor α1B) was 0.956 and the “α-Adrenoceptor α1B, % inhibition” value (adrenergic receptor α1B; 3 μM ligand) was 62(3 μM) %. For the same molecule, the IC50 (human H1 receptor) was 3.97 nM, the Ki (human H1 receptor) was 1.9 nM and the “nH H1” value (human H1 receptor) was 0.789.
For `Cc1ccc2c(c1)c1c(n2CCc2ccccn2)CCN(C)C1.Cl.Cl` [1.1.2(2-3)•2HCl], the inhibition at 1 µM (recombinant human 5-HT1A; ligand concentration 1 μM) was 53%, the “nH 5-HT2B” value [2] was 0.913 and the IC50 ([2]; read-out: IC50 5-HT2B) was 1020 nM. It also gave a Ki ([2]; read-out: Ki 5-HT2B) of 647 nM, an IC50 (adrenergic receptor α1B) of 47 nM and a Ki (adrenergic receptor α1B) of 26 nM. For the same molecule, the “Histamine receptor H1, % inhibition” value (human H1 receptor) was 98% and the inhibition at 1 µM (human 5-HT7 receptor; ligand concentration 1 μM) was 100%.
`Cc1ccc2c(c1)[C@@H]1CN(C)CCC[C@@H]1N2CCc1ccc(C)nc1.Cl.Cl.Cl` (relative stereo) [1.6.1(2)•3HCl] was tested, and the 5-HT1A % inhibition (recombinant human 5-HT1A; 10 μM ligand) was −9%, the “Dopamine receptor D2S, % inhibition” value (human D2S receptor) was 31% and the “Histamine receptor H2, % inhibition” value (human H2 receptor) was 66%. For the same molecule, the “α-Adrenoceptor α1B, % inhibition” value (adrenergic receptor α1B; 10 μM ligand) was 93%, the “Histamine receptor H1, % inhibition” value (human H1 receptor) was 102% and the 5-HT7 % inhibition (human 5-HT7 receptor; 10 μM ligand) was 8%.
